Measurements from patent US7718652B2, “Substituted benzothiadiazinedioxide derivatives and methods of their use” (Wyeth LLC, priority 2006, dated 2010).
Structures can show the parent of a compound that is named as a salt.

Biological target: T1, human hNET (Homo sapiens, UniProt P23975)
T1 construct: expressed in transfected cells; host or cells: MDCK-Net6 (MDCK cells stably transfected)
Assay: Functional Norepinephrine (NE) Uptake Assay in MDCK-Net6 cells
Assay type: cell-based
Details: for IC50: MDCK-Net6 cells stably transfected with human hNET, 3H norepinephrine 16 nM; for inhibition at 10 µM: MDCK-Net6 cells, printed in the IC50 column where 50% inhibition was not exceeded, read-out: hNET Uptake, % inhibition at highest concentration tested
Protocol: MDCK-Net6 cells, stably transfected with human hNET (Pacholczyk, T., R. D. Blakely, and S. G. Amara, Nature, 1991, 350(6316): p. 350-4) were cultured in growth medium containing high glucose DMEM (Gibco, Cat. No. 11995), 10% FBS (dialyzed, heat-inactivated, US Bio-Technologies, Lot FBD1129HI) and 500 μg/ml G418 (Gibco, Cat. No. 10131). Cells were plated at 300,000 T75 flask and cells were split twice weekly.
Functional Norepinephrine (NE) Uptake Assay
On day 1, cells were plated at 3,000 cells/well in growth medium and maintained in a cell incubator (37° C., 5% CO2). On day 2, growth medium was replaced with 200 μl of assay buffer (25 mM HEPES; 120 mM NaCl; 5 mM KCl; 2.5 mM CaCl2; 1.2 mM MgSO4; 2 mg/ml glucose (pH 7.4, 37° C.)) containing 0.2 mg/ml ascorbic acid and 1 μM pargyline. For screening, 25 μl of compound in 4% […] was added directly to each well and the plate is incubated for 5 minutes at 37° C.
To initiate the norepinephrine reuptake, 16 nM (final concentration) of ^3H norepinephrine (specific activity; 40-80 Ci/mmol) in assay buffer was delivered in 25 μl aliquots to each well, and the plates were incubated for 5 minutes at 37° C. The reaction was aspirated from the plate and the cells washed with 250 μl of 50 mM Tris Buffer (4° C.). The plates were left to dry for 1 hour. The cells were lysed using 0.25 M NaOH solution then placed on a shake table and vigorously shaken for 10 minutes. After cell lysis, 100 μl of Microscint 20 (PerkinElmer; #87-051101) were added to the plates and the plates were sealed with film tape and replaced on the shake table for a minimum of 10 minutes. The plates were counted in a TopCount counter (PerkinElmer).
For screening single point determinations, each compound plate contains at least 3 control wells (maximum NE reuptake determinant) and 3 non-specific wells determined by adding 20 μM of desipramine (minimum NE reuptake determinant). Determination of active compounds are calculated using a Microsoft Excel spread sheet applying the following formula: % inhibition=[1−((mean cpm test compound wells−mean cpm non-specific wells)/(mean cpm control wells−mean cpm non-specific wells))]×100
For IC50 determination, raw cpm values were generated in a data file from the TopCount counter. The data was organized in Microsoft Excel and transferred into PRIZM graphing and statistical program, which calculates the estimated IC50 value. Calculation of IC50 values were made using non-linear regression analysis with a sigmoidal dose response with variable slope. The statistical program used wells containing ^3H norepinephrine only as the maximal NE reuptake determinant and wells containing ^3H norepinephrine plus 20 μM desipramine as the minimal NE reuptake determinant (non-specific determinant). Estimation of the IC50 value was completed on a log scale and the line was fit between the maximal and minimal NE reuptake values.

T1 sequence (P23975 whole entry): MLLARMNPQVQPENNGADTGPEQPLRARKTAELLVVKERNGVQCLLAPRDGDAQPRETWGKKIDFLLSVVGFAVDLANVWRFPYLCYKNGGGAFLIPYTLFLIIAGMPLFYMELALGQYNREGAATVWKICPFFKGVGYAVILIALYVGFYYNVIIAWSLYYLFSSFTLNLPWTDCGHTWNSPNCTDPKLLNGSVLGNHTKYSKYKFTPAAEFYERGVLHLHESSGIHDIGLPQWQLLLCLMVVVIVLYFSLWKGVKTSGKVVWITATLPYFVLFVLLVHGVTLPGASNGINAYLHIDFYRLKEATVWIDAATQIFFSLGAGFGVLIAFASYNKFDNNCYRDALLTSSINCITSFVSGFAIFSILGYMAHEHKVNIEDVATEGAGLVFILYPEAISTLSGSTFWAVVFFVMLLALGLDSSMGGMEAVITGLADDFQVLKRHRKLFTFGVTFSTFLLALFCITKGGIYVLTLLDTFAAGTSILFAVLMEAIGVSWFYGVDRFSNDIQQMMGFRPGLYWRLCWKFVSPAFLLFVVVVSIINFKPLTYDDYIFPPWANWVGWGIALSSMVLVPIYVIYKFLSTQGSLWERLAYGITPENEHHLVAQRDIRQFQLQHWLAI

Compound: CNCCCN1Cc2ccccc2N(c2ccccc2)S1(=O)=O [Example 1, 3-(2,2-dioxido-1-phenyl-1,4-dihydro-3H-2,1,3-benzothiadiazin-3-yl)-N-methylpropan-1-amine hydrochloride]
- IC50: 129 nM

Compound: CNCCCN1Cc2ccccc2N(c2cccc(F)c2)S1(=O)=O [Example 2, 3-[1-(3-fluorophenyl)-2,2-dioxido-1,4-dihydro-3H-2,1,3-benzothiadiazin-3-yl]-N-methylpropan-1-amine hydrochloride]
- IC50: 628 nM

Compound: CNCCCN1Cc2ccccc2N(c2cccc(C)c2)S1(=O)=O [Example 3, N-methyl-3-[1-(3-methylphenyl)-2,2-dioxido-1,4-dihydro-3H-2,1,3-benzothiadiazin-3-yl]propan-1-amine hydrochloride]
- IC50: 1030 nM

Compound: CNCCCN1Cc2ccccc2N(c2cccc(OC)c2)S1(=O)=O [Example 4, 3-[1-(3-methoxyphenyl)-2,2-dioxido-1,4-dihydro-3H-2,1,3-benzothiadiazin-3-yl]-N-methylpropan-1-amine hydrochloride]
- IC50: 792 nM

Compound: CNCCCN1Cc2ccccc2N(c2ccc(Cl)cc2)S1(=O)=O [Example 5, 3-[1-(4-chlorophenyl)-2,2-dioxido-1,4-dihydro-3H-2,1,3-benzothiadiazin-3-yl]-N-methylpropan-1-amine hydrochloride]
- IC50: 908 nM

Compound: CNCCCN1Cc2ccccc2N(c2ccc(F)c(Cl)c2)S1(=O)=O [Example 6, 3-[1-(3-chloro-4-fluorophenyl)-2,2-dioxido-1,4-dihydro-3H-2,1,3-benzothiadiazin-3-yl]-N-methylpropan-1-amine hydrochloride]
- IC50: 1500 nM

Compound: CNCCCN1Cc2ccccc2N(c2ccc(F)cc2)S1(=O)=O [Example 7, 3-[1-(4-fluorophenyl)-2,2-dioxido-1,4-dihydro-3H-2,1,3-benzothiadiazin-3-yl]-N-methylpropan-1-amine hydrochloride]
- IC50: 492 nM

Compound: CNCCCN1Cc2ccccc2N(c2ccc(C)cc2)S1(=O)=O [Example 8, N-methyl-3-[1-(4-methylphenyl)-2,2-dioxido-1,4-dihydro-3H-2,1,3-benzothiadiazin-3-yl]propan-1-amine hydrochloride]
- IC50: 135 nM

Compound: CNCCCN1Cc2ccccc2N(c2ccc(OC)cc2)S1(=O)=O [Example 9, 3-[1-(4-methoxyphenyl)-2,2-dioxido-1,4-dihydro-3H-2,1,3-benzothiadiazin-3-yl]-N-methylpropan-1-amine hydrochloride]
- IC50: 3550 nM

Compound: CNCCCN1Cc2ccccc2N(c2ccc(F)c(F)c2)S1(=O)=O [Example 10, 3-[1-(3,4-difluorophenyl)-2,2-dioxido-1,4-dihydro-3H-2,1,3-benzothiadiazin-3-yl]-N-methylpropan-1-amine hydrochloride]
- IC50: 973 nM

Compound: CNCCN1Cc2ccccc2N(c2ccccc2F)S1(=O)=O [Example 11, 2-[1-(2-fluorophenyl)-2,2-dioxido-1,4-dihydro-3H-2,1,3-benzothiadiazin-3-yl]-N-methylethanamine]
- IC50: 200 nM

Compound: O=S1(=O)N(CCNC2CC2)Cc2ccccc2N1c1ccccc1F [Example 12, N-{2-[1-(2-fluorophenyl)-2,2-dioxido-1,4-dihydro-3H-2,1,3-benzothiadiazin-3-yl]ethyl}cyclopropanamine]
- IC50: 2380 nM

Compound: CNCCCN1Cc2ccccc2N(c2ccccc2F)S1(=O)=O [Example 13, 3-[1-(2-fluorophenyl)-2,2-dioxido-1,4-dihydro-3H-2,1,3-benzothiadiazin-3-yl]-N-methylpropan-1-amine]
- IC50: 29 nM

Compound: O=S1(=O)N(CCCNC2CC2)Cc2ccccc2N1c1ccccc1F [Example 14, N-{3-[1-(2-fluorophenyl)-2,2-dioxido-1,4-dihydro-3H-2,1,3-benzothiadiazin-3-yl]propyl}cyclopropanamine]
- IC50: 956 nM

Compound: CNCCCCN1Cc2ccccc2N(c2ccccc2F)S1(=O)=O [Example 15, 4-[1-(2-fluorophenyl)-2,2-dioxido-1,4-dihydro-3H-2,1,3-benzothiadiazin-3-yl]-N-methylbutan-1-amine]
- IC50: 38 nM

Compound: O=S1(=O)N(CCCCNC2CC2)Cc2ccccc2N1c1ccccc1F [Example 16, N-{4-[1-(2-fluorophenyl)-2,2-dioxido-1,4-dihydro-3H-2,1,3-benzothiadiazin-3-yl]butyl}cyclopropanamine]
- IC50: 139 nM

Compound: CNCCN1Cc2cc(F)ccc2N(c2ccccc2F)S1(=O)=O [Example 17, 2-[6-fluoro-1-(2-fluorophenyl)-2,2-dioxido-1,4-dihydro-3H-2,1,3-benzothiadiazin-3-yl]-N-methylethanamine]
- IC50: 1410 nM

Compound: O=S1(=O)N(CCNC2CC2)Cc2cc(F)ccc2N1c1ccccc1F [Example 18, N-{2-[6-fluoro-1-(2-fluorophenyl)-2,2-dioxido-1,4-dihydro-3H-2,1,3-benzothiadiazin-3-yl]ethyl}cyclopropanamine]
- IC50: 2870 nM

Compound: CNCCCN1Cc2cc(F)ccc2N(c2ccccc2F)S1(=O)=O [Example 19, 3-[6-fluoro-1-(2-fluorophenyl)-2,2-dioxido-1,4-dihydro-3H-2,1,3-benzothiadiazin-3-yl]-N-methylpropan-1-amine]
- IC50: 119 nM

Compound: O=S1(=O)N(CCCNC2CC2)Cc2cc(F)ccc2N1c1ccccc1F [Example 20, N-{3-[6-fluoro-1-(2-fluorophenyl)-2,2-dioxido-1,4-dihydro-3H-2,1,3-benzothiadiazin-3-yl]propyl}cyclopropanamine]
- IC50: 1750 nM

Compound: CNCCCCN1Cc2cc(F)ccc2N(c2ccccc2F)S1(=O)=O [Example 21, 4-[6-fluoro-1-(2-fluorophenyl)-2,2-dioxido-1,4-dihydro-3H-2,1,3-benzothiadiazin-3-yl]-N-methylbutan-1-amine]
- IC50: 30 nM

Compound: O=S1(=O)N(CCCCNC2CC2)Cc2cc(F)ccc2N1c1ccccc1F [Example 22, N-{4-[6-fluoro-1-(2-fluorophenyl)-2,2-dioxido-1,4-dihydro-3H-2,1,3-benzothiadiazin-3-yl]butyl}cyclopropanamine]
- IC50: 177 nM

Compound: CNC[C@@H](O)CCN1Cc2cc(F)ccc2N(c2ccccc2F)S1(=O)=O [Example 23, (2S)-4-[6-fluoro-1-(2-fluorophenyl)-2,2-dioxido-1,4-dihydro-3H-2,1,3-benzothiadiazin-3-yl]-1-(methylamino)butan-2-ol]
- IC50: 81 nM

Compound: CNC[C@@H](O)CCN1Cc2ccccc2N(c2ccccc2F)S1(=O)=O [Example 24, (2S)-4-[1-(2-fluorophenyl)-2,2-dioxido-1,4-dihydro-3H-2,1,3-benzothiadiazin-3-yl]-1-(methylamino)butan-2-ol]
- IC50: 95 nM

Compound: CNCCCN1c2ccccc2CN(c2ccccc2F)S1(=O)=O [Example 25, 3-[3-(2-fluorophenyl)-2,2-dioxido-3,4-dihydro-1H-2,1,3-benzothiadiazin-1-yl]-N-methylpropan-1-amine]
- inhibition at 10 µM: 47%

Compound: CNCCN1c2ccccc2CN(c2ccccc2F)S1(=O)=O [Example 26, 2-[3-(2-fluorophenyl)-2,2-dioxido-3,4-dihydro-1H-2,1,3-benzothiadiazin-1-yl]-N-methylethanamine]
- inhibition at 10 µM: 36%
